Data published in article PMC5036617 (Toxicological Sciences, 2016).
Like-named read-outs stand apart in the source and are kept apart here.

How the values were obtained:
bile salt export pump = test system: bile salt export pump; set-up: method as in Kostrubsky et al., 2007; details: via bile salt export pump inhibition; ref Kostrubsky et al., 2007; read-out: IC50 inhibition of taurocholate efflux; cited from earlier work
HepG2 cells [1] = assay: Assessment of superoxide level (mitoSOX red); assay type: cell-based; details: 2 h; for concentration significantly increasing cellular superoxide: HepG2 cells, glucose medium, 15–500 µM; for superoxide level in galactose media: acutely galactose-conditioned HepG2 cells, up to 500 µM
Experimental: HepG2 cells were collected by trypsinization and seeded on a 24-well plate (150 000 cells/500 µl/well) and incubated overnight in glucose medium (37°C, 5% CO2). […] Protein content per well was determined using a BCA assay (as described earlier) and was used to normalize superoxide levels.

[2] = test system: mitochondrial respiratory complex IV; assay: In situ respiratory complex assay in permeabilized cells, complex IV; assay type: cell-based; details: uncoupled, permeabilized HepG2 cells, 10–250 µM
[3] = test system: mitochondrial respiratory complex III; assay: Complex III-linked respiration assay in permeabilized cells; assay type: cell-based; details: permeabilized HepG2 cells, complex III-stimulated maximal respiration, 10–250 µM
Experimental: (§1) Culture medium was replaced with MAS buffer containing constituents to stimulate oxygen consumption via complex I (as previously without FCCP), complex II (ADP; 4.6 mM, succinate; 20 mM, rotenone; 1 µM, BSA; 0.2% w/v, PMP; 1 nM), or complex III (ADP; 4.6 mM, duroquinol; 500 μM, rotenone; 1 μM, malonic acid; 40 μM, BSA; 0.2% w/v, PMP; 1 nM) dependent on the respiratory complex of interest. […] Changes in complex II activity were also assessed at lower compound concentrations; 2–30 μM (Supplementary Figure S1). Complex I, II, and III activity were defined by the change in complex I, II, or III-stimulated maximal respiration respectively compared with vehicle control.
(§2) Following completion of OCR assays, medium was removed from all wells and 20 µl of somatic cell ATP releasing agent was added to each well before shaking for 1 min and transfer of 10 µl of lysate to a 96-well plate and performance of a BCA assay according to the manufacturer’s instructions. Protein content per well was used to normalize OCR.

Complex V (ATP synthase) = assay: Complex V assay in permeabilized cells; assay type: cell-based; details: permeabilized HepG2 cells, OCR change coupled vs uncoupled cells, 10–250 µM
Experimental: The assay consisted of a basal OCR measurement of 2 cycles of mix (30 s), wait (30 s), and measure (2 min) followed by MAS or FCCP injection (0.5 µM) and 2 measurement cycles. MAS-injected cells remain coupled whereas FCCP-injected cells become uncoupled meaning Complex V (ATP synthase) inhibition should not result in a change in OCR. […] FIG. 4 Representative complex V assay trace. Complex V assays consisted of cells in a solution containing substrates for complex IV before a series of compound injections into the cell culture microplate. FCCP (OXPHOS uncoupler) (Trace A) or MAS buffer (Traces B and C) was first injected, followed by 2 cycles of measurements. Flutamide, 2-hydroxyflutamide, oligomycin (positive control), or vehicle control was then injected into both the uncoupled (FCCP-treated) and coupled (MAS-treated) cells. […] Each measurement cycle was a total of 3 min. Following completion of OCR assays, medium was removed from all wells and 20 µl of somatic cell ATP releasing agent was added to each well before shaking for 1 min and transfer of 10 µl of lysate to a 96-well plate and performance of a BCA assay according to the manufacturer’s instructions. Protein content per well was used to normalize OCR.

HepG2 cells [4] = assay: Mitochondrial stress test, OCR analysis (Seahorse XFe96); assay type: cell-based; details: for basal respiration / maximal respiration: glucose medium, 7.8–500 µM; for basal respiration / maximal respiration / ATP-linked OCR as a percentage of maximal respiration / proton leak as a percentage of maximal respiration / spare respiratory capacity as a percentage of maximal respiration: vs vehicle control
Experimental: HepG2 cells were collected by trypsinization and seeded on a collagen-coated XF 96-well cell culture microplate (25 000 cells/100 µl medium/well) and incubated overnight in glucose medium (37 °C, 5% CO2). All assays used ≤ 0.5% DMSO as a vehicle control. Cells were incubated for 1 h (37°C, 0% CO2) before culture medium was replaced by 175 µl of unbuffered Seahorse XF Base medium supplemented with glucose (25 mM), L-glutamine (2 mM), sodium pyruvate (1 mM), pre-warmed to 37 °C (pH 7.4). Prior to measurement of OCR, the Seahorse XFe96 instrument gently mixed the assay medium in each well for 10 min to enable the oxygen partial pressure to reach equilibrium. […] There were 9 OCR measurement cycles following compound injection and each measurement cycle consisted of a 3 min mix and 3 min measure. […] After stress test compound injections there were 3 measurement cycles before the injection of the next stress test compound. This enabled the calculation of basal respiration (OCR prior to oligomycin injection—non-mitochondrial OCR), proton leak (OCR after oligomycin injection—non-mitochondrial OCR), ATP-linked OCR (basal respiration—proton leak—non-mitochondrial OCR), maximal respiration (first injection after FCCP injection—non-mitochondrial OCR) and spare respiratory capacity (maximal respiration—basal respiration) (Figure 2).  FIG. 2 Representative control mitochondrial stress test trace. Mitochondrial stress test assays consisted of a series of compound injections into the cell culture microplate. […] Remaining injections consisted of oligomycin (ATP synthase inhibitor), FCCP (OXPHOS uncoupler), and rotenone/antimycin A (complex I and III inhibitors, respectively) with each followed by 3 measurement cycles. This series of manipulations enabled the calculation of parameters: basal, ATP-linked, maximum, and non-mitochondrial OCR, as well as proton leak. Each measurement cycle was a total of 6 min. Following completion of OCR assays, medium was removed from all wells and 20 µl of somatic cell ATP releasing agent was added to each well before shaking for 1 min and transfer of 10 µl of lysate to a 96-well plate and performance of a BCA assay according to the manufacturer’s instructions. Protein content per well was used to normalize OCR.

[5] = test system: mitochondrial respiratory complex II; assay: In situ respiratory complex assay in permeabilized cells, complex II; assay type: cell-based; details: uncoupled, permeabilized HepG2 cells, 10–250 µM
[6] = test system: mitochondrial respiratory complex I; assay: In situ respiratory complex assay in permeabilized cells, complex I; assay type: cell-based; details: uncoupled, permeabilized HepG2 cells, 10–250 µM
[7] = test system: mitochondrial respiratory complex II; assay: Complex II-linked respiration assay in permeabilized cells; assay type: cell-based; details: permeabilized HepG2 cells; for complex II activity: complex II-stimulated maximal respiration vs vehicle control, 10–250 µM
Experimental: as §1, §2

[8] = cited from earlier work; for half-life: after flutamide administration, ref Kostrubsky et al., 2007; for Cmax: plasma, ref Schulz et al., 1988, read-out: maximum plasma concentration (Cmax)

Compound	IC50 (bile salt export pump) [µM]	concentration significantly increasing cellular superoxide (HepG2 cells [1]) [µM]	superoxide level in galactose media (HepG2 cells [1])	complex IV activity [2]	complex III activity [3]	basal respiration (HepG2 cells [4])	maximal respiration (HepG2 cells [4])	ATP-linked OCR as a percentage of maximal respiration (HepG2 cells [4]; up to 500 µM)	proton leak as a percentage of maximal respiration (HepG2 cells [4]; up to 500 µM)	spare respiratory capacity as a percentage of maximal respiration (HepG2 cells [4]; up to 500 µM)	complex II activity (response to succinate) [5]	complex I activity (response to rotenone) [6]	complex II activity [7]	half-life [8] [h]	further results
CC(C)(O)C(=O)Nc1ccc([N+](=O)[O-])c(C(F)(F)F)c1 [2-hydroxyflutamide]	110	≥ 30	significant increase	Neither compound appeared to have a significant impact	no significant inhibition	significant decrease	significant decrease	significant decrease	significant increase	significant decrease	significantly reduced response	significant reduction in complex I activity	significant reduction	9.6	concentration inducing a significant reduction in complex V activity (Complex V (ATP synthase)): ≥ 125 µM; concentration inducing a significant decline in complex II activity ([7]; complex II-stimulated maximal respiration, 2–30 and 10–250 µM): ≥ 10 µM; Cmax ([8]; metabolite after single 250 mg dose of flutamide): 4400 nM
CC(C)C(=O)Nc1ccc([N+](=O)[O-])c(C(F)(F)F)c1 [Flutamide]	75	≥ 30	significant increase	Neither compound appeared to have a significant impact	no significant inhibition	significant decrease	significant decrease	significant decrease	significant increase	significant decrease	Only 2-hydroxyflutamide induced a significantly reduced response	significant reduction in complex I activity	only 2-hydroxyflutamide and not flutamide induced a significant reduction	7.8	complex V activity (Complex V (ATP synthase)): this was not the case for flutamide; OCR upon compound injection, mitochondrial stress test (HepG2 cells [4]; up to 500 µM): immediate concentration-dependent reduction in OCR; Cmax ([8]; single 250 mg dose of flutamide): 72.2 nM; parent drug as share of detectable compound in the plasma following administration ([8]; ref Radwanski et al., 1989): 2.5%
